Entries after “also recorded” stand apart in the source; their conditions may differ.
Experiments:
[1] = test system: MLL-translocated cell lines; test: Proliferation of MLL-translocated cell lines; settings: versus MLL-germline lines; FIG. 2
[2] = test system: MLL germline leukemia cell lines; settings: cited from earlier work
[3] = test system: OCI-AML3; test: Apoptosis and cell cycle in OCI-AML3 cells
[4] = test system: Molm-13; test: Cell proliferation, Molm-13; assay type: cell-based; settings: Homo sapiens; MLL-translocated line Molm-13; FIG. 2
[5] = test system: HOXA7, HOXA9, HOXA10, and MEIS1; test: HOX/MEIS1 mRNA expression in NUP98-NSD1 transformed cells; assay type: cell-based, mouse; settings: 10 μM, 7 day treatment; FIG. 5B
From the text: FIG. 5B is a histogram showing mRNA expression of HOXA7, HOXA9, HOXA10, and MEIS1 relative to GAPDH (ddCT).

[6] = test system: MLL-AF9 transformed cells; test: Cell cycle arrest and apoptosis of MLL-AF9 transformed cells; assay type: cell-based, murine
[7] = test system: SEMK2; test: Cell proliferation, SEMK2; assay type: cell-based; settings: Homo sapiens; MLL-translocated line SEMK2; FIG. 2
[8] = test system: NUP98-NSD1 transformed cells; test: Annexin V apoptosis in NUP98-NSD1 transformed cells; assay type: cell-based, mouse; settings: 10 μM, 10 days; compared with MLL-AF9 transformed cells; FIG. 8B
Protocol: The percentage of Annexin V positive cells is shown.
(§1) Apoptosis was assessed by staining cells with Annexin V 10 days after treatment. The extent of apoptosis was compared to that found in MLL-AF9 transformed cells treated in a similar fashion.

[9] = test system: HOXA9, HOXA10, MEIS1, HOXB3, HOXB4 and HOXB5 mRNA; test: HOX gene qPCR in Npm1^cA/+Rosa^SB/+ AML cells; assay type: cell-based, mouse; settings: 10 μM, FIG. 14A
Protocol: The effect of DOT1L inhibition on the levels of various HOX genes and HOX-associated genes was evaluated using qPCR.

[10] = test system: MLL germline leukemia cell lines; test: Proliferation of MLL germline leukemia cell lines; settings: 10 μM; cell lines that do not show elevated HOXA gene expression; FIG. 2
[11] = test system: OCI-AML2; test: Proliferation of OCI-AML2 (DNTM3A mutant) cells; assay type: cell-based, human
Protocol: as §1
Cell numbers were assessed at multiple time points after treatment was initiated. […] Evidence of differentiation was assessed after DOT1L inhibition via characterization of cell surface marker expression—such as CD11b and CD15 expression, both of which are induced upon differentiation of myelomonocytic leukemia cells.
MTT assays were performed on day 11.

[12] = test system: REH; test: Cell proliferation, REH; assay type: cell-based; settings: Homo sapiens; non-MLL-translocated line REH; FIG. 2

Compound: CC(C)N(CCCNC(=O)Nc1ccc(C(C)(C)C)cc1)C[C@H]1O[C@@H](n2ccc3c(N)ncnc32)[C@H](O)[C@@H]1O [EPZ004777, 1-(3-((((2R,3S,4R,5R)-5-(4-Amino-7H-pyrrolo[2,3-d]pyrimidin-7-yl)-3,4-dihydroxytetrahydrofuran-2-yl)methyl)(isopropyl)amino)propyl)-3-(4-(tert-butyl)phenyl)urea]
- inhibition of proliferation of MLL-translocated cell lines [1]: selectively inhibits
- anti-proliferative effect ([2]; MLL germline leukemia cell lines): no anti-proliferative effect
- factor by which leukemic cells lacking MLL fusions are less sensitive [2]: approximately 100
- cell cycle status by flow cytometry [3]: Sub G1 accumulation
- apoptotic cells (Annexin V staining) ([3]; 10 μM, 4, 7, or 10 days, FIG. 11A): tremendous increase in apoptotic cells; also recorded: apoptosis
- IC50 [4]: 720 nM
- mRNA expression of HOXA7, HOXA9, HOXA10, and MEIS1 [5]: substantial decrease; also recorded: strong inhibitory effect
- response to DOT1L inhibition [6]: cell cycle arrest and apoptosis
- IC50 [7]: 1700 nM
- apoptosis (Annexin V staining) [8]: more apoptosis; also recorded: induces apoptosis
- HOXA9, HOXA10, MEIS1, HOXB3, HOXB4 and HOXB5 mRNA levels [9]: decreased
- HOXA9, HOXA10, MEIS1, HOXB3, HOXB4 and HOXB5 mRNA levels ([9]; listed as EPZ00477): significant decrease
- influence on proliferation [10]: does not influence
- cell number versus DMSO ([11]; 10 μM, compared with Molm-13, FIG. 10): equally, if not more sensitive; also recorded: sensitive
- IC50 ([11]; Homo sapiens, OCI-AML2, 264 h, MTT assays on day 11, concentrations up to 10 μM): 150 nM
- IC50 [12]: 14000 nM
